# Test results published in ChEMBL document CHEMBL1629662, “Antimicrobial activity of prulifloxacin tested against a worldwide collection of gastroenteritis-producing pathogens, including those causing traveler's diarrhea” (2009).
# Assays:
# Salmonella typhimurium = assay: Antibacterial activity against Salmonella enterica serovar Typhimurium by broth microdilution method; type: functional, Salmonella enterica subsp. enterica serovar Typhimurium
# Salmonella sp. = assay: Antibacterial activity against Salmonella sp. assessed as growth inhibition at 0.016 ug/ml by broth microdilution method; type: functional
# [1] = Antibacterial activity against Salmonella enterica serovar Heidelberg by broth microdilution method; type: functional, Salmonella enterica subsp. enterica serovar Heidelberg
# Plesiomonas shigelloides [2] = assay: Antibacterial activity against Plesiomonas shigelloides assessed as growth inhibition at =<0.002 ug/ml by broth microdilution method; type: functional
# Escherichia coli [3] = assay: Antibacterial activity against Escherichia coli assessed as growth inhibition at 0.5 ug/ml by broth microdilution method; type: functional
# Aeromonas sp. [4] = assay: Antibacterial activity against Aeromonas sp. assessed as growth inhibition at 0.25 ug/ml by broth microdilution method; type: functional
# Yersinia sp. [5] = assay: Antibacterial activity against Yersinia sp. assessed as growth inhibition at 0.12 ug/ml by broth microdilution method; type: functional; details: Yersinia sp. (in: enterobacteria)
# Campylobacter coli = assay: Antibacterial activity against Campylobacter coli by broth microdilution method; type: functional
# [6] = test system: Yersinia pseudotuberculosis; assay: Antibacterial activity against Yersinia pseudotuberculosis by broth microdilution method; type: functional
# Shigella sp. [7] = assay: Antibacterial activity against Shigella sp. assessed as growth inhibition at 0.008 ug/ml by broth microdilution method; type: functional
# Aeromonas sp. [8] = assay: Antibacterial activity against Aeromonas sp. assessed as growth inhibition at 2 ug/ml by broth microdilution method; type: functional
# Shigella boydii = assay: Antibacterial activity against Shigella boydii assessed as percent susceptible isolates by broth microdilution method; type: functional; details: pooled result: one value given for 3 cell lines, strains, targets or settings
# Salmonella paratyphi [9] = assay: Antibacterial activity against Salmonella enterica serovar Paratyphi assessed as percent susceptible isolates by broth microdilution method; type: functional, Salmonella enterica subsp. enterica serovar Paratyphi A
# Shigella dysenteriae [10] = assay: Antibacterial activity against Shigella dysenteriae by broth microdilution method; type: functional
# Aeromonas sobria [11] = assay: Antibacterial activity against Aeromonas sobria assessed as percent susceptible isolates by broth microdilution method; type: functional
# Escherichia coli [12] = assay: Antibacterial activity against Escherichia coli by broth microdilution method; type: functional
# Plesiomonas shigelloides [13] = assay: Antibacterial activity against Plesiomonas shigelloides assessed as percent resistant isolates by broth microdilution method; type: functional
# Vibrio sp. [14] = assay: Antibacterial activity against Vibrio sp. assessed as growth inhibition at 0.004 ug/ml by broth microdilution method; type: functional
# Escherichia coli [15] = assay: Antibacterial activity against Escherichia coli assessed as growth inhibition at 0.004 ug/ml by broth microdilution method; type: functional
# Vibrio vulnificus [16] = assay: Antibacterial activity against Vibrio vulnificus by broth microdilution method; type: functional
# Aeromonas sobria [17] = assay: Antibacterial activity against Aeromonas sobria by broth microdilution method; type: functional
# Vibrio parahaemolyticus = assay: Antibacterial activity against Vibrio parahaemolyticus assessed as percent susceptible isolates by broth microdilution method; type: functional
# Aeromonas veronii = assay: Antibacterial activity against Aeromonas veronii assessed as percent resistant isolates by broth microdilution method; type: functional
# Aeromonas caviae [18] = assay: Antibacterial activity against Aeromonas caviae by broth microdilution method; type: functional
# Vibrio sp. [19] = assay: Antibacterial activity against Vibrio sp. assessed as growth inhibition at 0.016 ug/ml by broth microdilution method; type: functional
# Campylobacter jejuni = assay: Antibacterial activity against Campylobacter jejuni by broth microdilution method; type: functional
# Plesiomonas shigelloides [20] = assay: Antibacterial activity against Plesiomonas shigelloides by broth microdilution method; type: functional
# Shigella sonnei = assay: Antibacterial activity against Shigella sonnei assessed as percent resistant isolates by broth microdilution method; type: functional; details: pooled result: one value given for 4 cell lines, strains, targets or settings
# Vibrio fluvialis = assay: Antibacterial activity against Vibrio fluvialis by broth microdilution method; type: functional
# Campylobacter sp. [21] = assay: Antibacterial activity against Campylobacter sp. assessed as growth inhibition at 0.016 ug/ml by broth microdilution method; type: functional
# Aeromonas sp. [22] = assay: Antibacterial activity against Aeromonas sp. assessed as growth inhibition at 1 ug/ml by broth microdilution method; type: functional
# Aeromonas sp. [23] = assay: Antibacterial activity against Aeromonas sp. assessed as growth inhibition at =<0.002 ug/ml by broth microdilution method; type: functional
# Vibrio sp. [24] = assay: Antibacterial activity against Vibrio sp. by broth microdilution method; type: functional
# Vibrio cholerae [25] = assay: Antibacterial activity against Vibrio cholerae by broth microdilution method; type: functional
# Vibrio vulnificus [26] = assay: Antibacterial activity against Vibrio vulnificus assessed as percent resistant isolates by broth microdilution method; type: functional
# Yersinia sp. [27] = assay: Antibacterial activity against Yersinia sp. assessed as growth inhibition at =<0.002 ug/ml by broth microdilution method; type: functional
# Vibrio sp. [28] = assay: Antibacterial activity against Vibrio sp. assessed as percent susceptible isolates by broth microdilution method; type: functional
# Vibrio cholerae [29] = assay: Antibacterial activity against Vibrio cholerae assessed as percent resistant isolates by broth microdilution method; type: functional
# Vibrio sp. [30] = assay: Antibacterial activity against Vibrio sp. assessed as growth inhibition at 0.03 ug/ml by broth microdilution method; type: functional
# Campylobacter sp. [31] = assay: Antibacterial activity against Campylobacter sp. assessed as growth inhibition at 0.004 ug/ml by broth microdilution method; type: functional
# Yersinia sp. [32] = assay: Antibacterial activity against Yersinia sp. assessed as growth inhibition at 0.008 ug/ml by broth microdilution method; type: functional; details: Yersinia sp. (in: enterobacteria)
# Salmonella typhi = assay: Antibacterial activity against Salmonella enterica serovar Typhi assessed as percent susceptible isolates by broth microdilution method; type: functional, Salmonella enterica subsp. enterica serovar Typhi
# Aeromonas hydrophila = assay: Antibacterial activity against Aeromonas hydrophila by broth microdilution method; type: functional
# Escherichia coli [33] = assay: Antibacterial activity against Escherichia coli assessed as growth inhibition at 0.12 ug/ml by broth microdilution method; type: functional
# Shigella dysenteriae [34] = assay: Antibacterial activity against Shigella dysenteriae assessed as percent susceptible isolates by broth microdilution method; type: functional
# Escherichia coli [35] = assay: Antibacterial activity against enterotoxigenic Escherichia coli assessed as percent resistant isolates by broth microdilution method; type: functional
# Aeromonas caviae [36] = assay: Antibacterial activity against Aeromonas caviae assessed as percent susceptible isolates by broth microdilution method; type: functional
# Shigella sp. [37] = assay: Antibacterial activity against Shigella sp. assessed as growth inhibition at 0.12 ug/ml by broth microdilution method; type: functional
# Shigella sp. [38] = assay: Antibacterial activity against Shigella sp. assessed as growth inhibition at 0.016 ug/ml by broth microdilution method; type: functional
# Campylobacter sp. [39] = assay: Antibacterial activity against Campylobacter sp. assessed as growth inhibition at 0.06 ug/ml by broth microdilution method; type: functional
# Yersinia enterocolitica = assay: Antibacterial activity against Yersinia enterocolitica assessed as percent susceptible isolates by broth microdilution method; type: functional
# Salmonella paratyphi [40] = assay: Antibacterial activity against Salmonella enterica serovar Paratyphi by broth microdilution method; type: functional, Salmonella enterica subsp. enterica serovar Paratyphi A
structure (smiles),measurement,setting,value
CC1Sc2c(C(=O)O)c(=O)c3cc(F)c(N4CCNCC4)cc3n21 (centres undefined) [ULIFLOXACIN],MIC50,Salmonella typhimurium,0.008 µg/mL
same,MIC90,Salmonella typhimurium,0.03 µg/mL
same,inhibition at 0.016 µg/mL,Salmonella sp.,85%
same,MIC50,[1],0.008 µg/mL
same,MIC90,[1],0.03 µg/mL
same,inhibition (INH),Plesiomonas shigelloides [2],0%
same,inhibition at 0.5 µg/mL,Escherichia coli [3],97%
same,inhibition at 0.25 µg/mL,Aeromonas sp. [4],95%
same,inhibition at 0.12 µg/mL,Yersinia sp. [5],100%
same,MIC50,Campylobacter coli,0.03 µg/mL
same,MIC90,Campylobacter coli,> 2 µg/mL
same,MIC,[6],0.008 µg/mL
same,MIC50,[6],0.008 µg/mL
same,MIC90,[6],0.016 µg/mL
same,inhibition at 0.008 µg/mL,Shigella sp. [7],95%
same,inhibition at 2 µg/mL,Aeromonas sp. [8],98%
same,Activity,Shigella boydii,100%
same,Activity,Salmonella paratyphi [9],100%
same,MIC50,Shigella dysenteriae [10],0.004 µg/mL
same,MIC90,Shigella dysenteriae [10],0.008 µg/mL
same,Activity,Aeromonas sobria [11],98%
same,MIC50,Escherichia coli [12],0.008 µg/mL
same,MIC90,Escherichia coli [12],0.008 µg/mL
same,Activity,Plesiomonas shigelloides [13],0%
same,inhibition at 0.004 µg/mL,Vibrio sp. [14],35%
same,inhibition at 0.004 µg/mL,Escherichia coli [15],27%
same,MIC50,Vibrio vulnificus [16],0.016 µg/mL
same,MIC90,Vibrio vulnificus [16],0.03 µg/mL
same,MIC50,Aeromonas sobria [17],0.004 µg/mL
same,MIC90,Aeromonas sobria [17],0.06 µg/mL
same,Activity,Vibrio parahaemolyticus,100%
same,Activity,Aeromonas veronii,2%
same,MIC50,Aeromonas caviae [18],0.004 µg/mL
same,MIC90,Aeromonas caviae [18],0.06 µg/mL
same,inhibition at 0.016 µg/mL,Vibrio sp. [19],65%
same,MIC50,Campylobacter jejuni,0.03 µg/mL
same,MIC90,Campylobacter jejuni,> 2 µg/mL
same,MIC,Plesiomonas shigelloides [20],0.004 µg/mL
same,MIC50,Plesiomonas shigelloides [20],0.004 µg/mL
same,Activity,Shigella sonnei,0%
same,MIC50,Vibrio fluvialis,0.016 µg/mL
same,MIC90,Vibrio fluvialis,0.03 µg/mL
same,inhibition at 0.016 µg/mL,Campylobacter sp. [21],8%
same,inhibition at 1 µg/mL,Aeromonas sp. [22],98%
same,inhibition (INH),Aeromonas sp. [23],16%
same,MIC50,Vibrio sp. [24],0.016 µg/mL
same,MIC90,Vibrio sp. [24],0.03 µg/mL
same,MIC50,Vibrio cholerae [25],0.016 µg/mL
same,MIC90,Vibrio cholerae [25],0.03 µg/mL
same,Activity,Vibrio vulnificus [26],0%
same,inhibition (INH),Yersinia sp. [27],0%
same,Activity,Vibrio sp. [28],100%
same,Activity,Vibrio cholerae [29],0%
same,inhibition at 0.03 µg/mL,Vibrio sp. [30],100%
same,inhibition at 0.004 µg/mL,Campylobacter sp. [31],0%
same,inhibition at 0.008 µg/mL,Yersinia sp. [32],56%
same,Activity,Salmonella typhi,100%
same,MIC50,Aeromonas hydrophila,0.004 µg/mL
same,MIC90,Aeromonas hydrophila,0.06 µg/mL
same,inhibition at 0.12 µg/mL,Escherichia coli [33],97%
same,Activity,Shigella dysenteriae [34],100%
same,Activity,Escherichia coli [35],0%
same,Activity,Aeromonas caviae [36],98%
same,inhibition at 0.12 µg/mL,Shigella sp. [37],100%
same,inhibition at 0.016 µg/mL,Shigella sp. [38],96%
same,inhibition at 0.06 µg/mL,Campylobacter sp. [39],77%
same,Activity,Yersinia enterocolitica,100%
same,MIC50,Salmonella paratyphi [40],0.008 µg/mL
same,MIC90,Salmonella paratyphi [40],0.03 µg/mL
